How the values were obtained:
[1] = biological target: IL-2-Inducible T-Cell Kinase (ITK) (Homo sapiens (Human), UniProt Q08881); experiment: ITK enzyme assay (IL-2-inducible T-cell kinase activity); assay type: biochemical; details: geometric mean of count n
Summary of the method: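 Full-length N-Flag/C-His human ITK, pre-incubated 30 min at RT with compound. Reaction in HEPES pH 7.5 buffer with MgCl2, glutathione, gelatin and Brij-35, started with BTK peptide substrate, 60 min at RT. EDTA stop, PT66/APC TR-FRET detection overnight; IC50 fitted by four-parameter logistic.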

[2] = biological target: Tropomyosin Receptor Kinase A (TRKA), NTRK1 enzyme (Homo sapiens (Human), UniProt P04629); experiment: TRKA (NTRK1) ThermoFisher Z'-LYTE enzyme assay; assay type: biochemical; details: test compound 1 uM, ATP 1 mM; arithmetic mean of count n
Sequence of Tropomyosin Receptor Kinase A (TRKA), NTRK1 enzyme (P04629 33-796): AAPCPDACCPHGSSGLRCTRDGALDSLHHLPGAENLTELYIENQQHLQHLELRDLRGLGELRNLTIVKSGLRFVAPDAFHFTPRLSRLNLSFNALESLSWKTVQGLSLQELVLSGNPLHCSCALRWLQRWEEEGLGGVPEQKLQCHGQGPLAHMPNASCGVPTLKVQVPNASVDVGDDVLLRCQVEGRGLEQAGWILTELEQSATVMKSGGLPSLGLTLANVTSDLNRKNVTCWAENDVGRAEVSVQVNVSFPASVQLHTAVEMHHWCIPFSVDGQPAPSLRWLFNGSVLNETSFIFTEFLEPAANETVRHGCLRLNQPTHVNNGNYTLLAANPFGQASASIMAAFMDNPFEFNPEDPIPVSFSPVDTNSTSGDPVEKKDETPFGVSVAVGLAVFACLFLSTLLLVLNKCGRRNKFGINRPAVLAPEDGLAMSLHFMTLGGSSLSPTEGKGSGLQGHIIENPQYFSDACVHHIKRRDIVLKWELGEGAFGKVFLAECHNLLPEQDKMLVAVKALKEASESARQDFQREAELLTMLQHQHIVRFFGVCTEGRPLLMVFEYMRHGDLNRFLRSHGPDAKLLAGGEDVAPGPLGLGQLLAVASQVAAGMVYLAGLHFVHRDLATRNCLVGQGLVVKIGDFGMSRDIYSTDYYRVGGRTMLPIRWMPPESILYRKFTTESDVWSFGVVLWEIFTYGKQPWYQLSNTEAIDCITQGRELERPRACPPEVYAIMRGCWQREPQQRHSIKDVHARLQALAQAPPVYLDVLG
Protocol: TRKA, also known as neurotrophic tyrosine kinase receptor type 1 (NTKR1) activity was determined by measuring the effect of a test compound on the activity against the NTRK1 enzyme using the ThermoFisher Z′-LYTE Assay fluorescence-based coupled enzyme format (www.thermofisher.com/selectscreen). Test compounds were screened at a fixed concentration of 1 uM and the % inhibition was determined compared to controls at a fixed ATP concentration of 1 mM. The resulting effect value for the tested compound was compared to the assay controls to determine the % inhibition (%).

[3] = system: activated CD4+ human T-cells (IL-2); experiment: IL-2 inhibition in supernatants from activated CD4+ human T-cells (cisbio HTRF); assay type: cell-based; details: T-cell; CD3/CD28-activated CD4+ human T cells, ImmunoCult stimulation 20 to 24 hrs; geometric mean of count n
Summary of the method: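 Primary human CD4+ T cells activated with CD3/CD28 for 3 days and expanded to 7-9 days total, plated at 30,000 cells/well. Cells preincubated 15 min with compound, then stimulated with ImmunoCult (1:50 final) for 20-24 h at 37° C. Supernatant IL-2 measured by HTRF (665/615 nm); IC50 from four-parameter logistic fit.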

Sequence of IL-2-Inducible T-Cell Kinase (ITK) (Q08881 whole entry): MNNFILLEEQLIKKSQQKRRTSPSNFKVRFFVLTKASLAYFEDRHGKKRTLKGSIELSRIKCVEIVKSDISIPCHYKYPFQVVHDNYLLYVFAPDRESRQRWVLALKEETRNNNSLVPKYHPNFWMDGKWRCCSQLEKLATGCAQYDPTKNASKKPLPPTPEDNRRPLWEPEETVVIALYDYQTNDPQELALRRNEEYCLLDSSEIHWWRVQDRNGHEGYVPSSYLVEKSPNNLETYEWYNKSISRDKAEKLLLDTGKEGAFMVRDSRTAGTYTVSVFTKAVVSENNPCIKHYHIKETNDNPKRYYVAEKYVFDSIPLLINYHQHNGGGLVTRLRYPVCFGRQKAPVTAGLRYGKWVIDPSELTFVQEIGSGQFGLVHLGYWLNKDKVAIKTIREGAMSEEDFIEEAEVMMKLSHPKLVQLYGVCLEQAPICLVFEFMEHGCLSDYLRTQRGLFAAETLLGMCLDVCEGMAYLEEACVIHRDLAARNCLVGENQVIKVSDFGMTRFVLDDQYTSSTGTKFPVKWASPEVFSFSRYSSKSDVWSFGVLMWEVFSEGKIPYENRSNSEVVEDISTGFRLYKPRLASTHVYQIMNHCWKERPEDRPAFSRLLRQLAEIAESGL

Row | IC50 [1] | inhibition at 1 µM [2] | IC50 [3] | SMILES
1 | 23 nM | 95% | 88 nM | CN(C(=O)C1(F)CCOCC1)c1cnc2nc(-c3n[nH]c4c3C[C@@H]3C[C@]3(C)C4)[nH]c2c1 [Example 61, 4-Fluoro-N-methyl-N-(2-((4aS,5aR)-5a-methyl-1,4,4a,5,5a,6-hexahydrocyclopropa[f]indazol-3-yl)-1H-imidazo[4,5-b]pyridin-6-yl)tetrahydro-2H-pyran-4-carboxamide]
2 | 54 nM | 96% | 1250 nM | CC(=O)N(C)CC(=O)N(C)c1cnc2nc(-c3n[nH]c4c3C[C@@H]3C[C@]3(C)C4)[nH]c2c1 [Example 80, N-Methyl-N-(2-((4aS,5aR)-5a-methyl-1,4,4a,5,5a,6-hexahydrocyclopropa[f]indazol-3-yl)-1H-imidazo[4,5-b]pyridin-6-yl)-2-(N-methylacetamido)acetamide]
3 | 31 nM | 96% | 288 nM | CN(c1cnc2nc(-c3n[nH]c4c3C[C@@H]3C[C@]3(C)C4)[nH]c2c1)C(=O)[C@H]1C[C@H](C)C1 [Example 84, (1r,3S)-N,3-Dimethyl-N-(2-((4aS,5aR)-5a-methyl-1,4,4a,5,5a,6-hexahydrocyclopropa[f]indazol-3-yl)-1H-imidazo[4,5-b]pyridin-6-yl)cyclobutane-1-carboxamide]
4 | 100 nM | 95% | 466 nM | CN(C(=O)C(C)(C)C)c1cnc2nc(-c3n[nH]c4c3C[C@@H]3C[C@]3(C)C4)[nH]c2c1 [Example 86, N-Methyl-N-(2-((4aS,5aR)-5a-methyl-1,4,4a,5,5a,6-hexahydrocyclopropa[f]indazol-3-yl)-1H-imidazo[4,5-b]pyridin-6-yl)pivalamide]
5 | 64 nM | 93% | 266 nM | CN(C(=O)C1(F)CCC1)c1cnc2[nH]c(-c3n[nH]c4c3CCC(C)(C)C4)nc2c1 [Example 95, N-(2-(6,6-Dimethyl-4,5,6,7-tetrahydro-1H-indazol-3-yl)-3H-imidazo[4,5-b]pyridin-6-yl)-1-fluoro-N-methylcyclobutane-1-carboxamide]
6 | 56 nM | 92% | 287 nM | CN(C(=O)CCC(C)(F)F)c1cnc2[nH]c(-c3n[nH]c4c3CCC(C)(C)C4)nc2c1 [Example 97, N-(2-(6,6-Dimethyl-4,5,6,7-tetrahydro-1H-indazol-3-yl)-3H-imidazo[4,5-b]pyridin-6-yl)-4,4-difluoro-N-methylpentanamide]
